Data: article PMC10541190 (The Journal of Clinical Investigation, 2023)
Several values for one entry are separate records, joined by “and”; a condition that tells them apart may be missing. Equal entries are not always repeated. Where two headings read alike, the source gives them in different places. [ ]: non-standard residue; d: D form. Nle = CCCC[C@H](N)C(=O)O

Experiments:
[1] = test system: SARS-CoV-2 (USA-WA1/2020); assay: microbe, parasite or virus in culture; format: cell-based
in vitro [2] = conditions: African green monkey
in vitro [3] = conditions: human, U-87 MG cell viability (%)
in vitro [4] = conditions: human, Huh7 cell viability (%)

Molecule | SARS-CoV-2 infection (%) ([1]; 20 μM) | Cell viability (%) (Vero cells; 20 μM) | viability at 20 µM (in vitro [2]; Cell viability (%), 20 μM) [%] | viability at 3.33 µM (in vitro [3]) [%] | viability at 10 µM (in vitro [3]) [%] | SARS-CoV-2 infection (%) ([1]; 0.625 μM) | SARS-CoV-2 infection (%) ([1]; 1.25 μM) | SARS-CoV-2 infection (%) ([1]; 5 μM) | Cell viability (%) (Vero cells; 0.625 μM) | Cell viability (%) (Vero cells; 1.25 μM) | Cell viability (%) (Vero cells; 5 μM) | viability at 0.625 µM (in vitro [2]; Cell viability (%), 0.625 μM) [%] | viability at 1.25 µM (in vitro [2]; Cell viability (%), 1.25 μM) [%] | viability at 5 µM (in vitro [2]; Cell viability (%), 5 μM) [%] | viability at 0.37 µM (in vitro [3]) [%] | viability at […] (in vitro [3]) | further results
[N-]=[N+]=CC(=O)OC[C@H](N)C(=O)O [Aza-serine] | 0.00% | 91.48% and 89.75% | 87.1 | 94.5 | 84 |  |  |  |  |  |  |  |  |  |  |  | SARS-CoV-2 infection (%) ([1]; 0.2469 μM): 107.69% and 86.64%; SARS-CoV-2 infection (%) ([1]; 2.2222 μM): 7.01% and 8.09%; SARS-CoV-2 infection (%) ([1]; 6.6667 μM): 2.70% and 1.62%; Cell viability (%) (Vero cells; 0.2469 μM): 103.32%; Cell viability (%) (Vero cells; 2.2222 μM): 96.19% and 95.62%; Cell viability (%) (Vero cells; 6.6667 μM): 94.50% and 92.95%; viability at 0.2469 µM (in vitro [2]; Cell viability (%), 0.2469 μM): 87.9%; viability at 2.2222 µM (in vitro [2]; Cell viability (%), 2.2222 μM): 89.7%; viability at 6.6667 µM (in vitro [2]; Cell viability (%), 6.6667 μM): 92.2%
CNc1ccc2oc(C[C@H]3O[C@@]4(CC[C@H]3C)O[C@H]([C@H](C)C(=O)c3ccc[nH]3)[C@H](C)C[C@H]4C)nc2c1C(=O)O [Calci-mycin] | 0.00337% | 81.29% | 86.9 | 66.8 | 58.2 | 17.53% and 16.18% and 16.52% | 0.00337% | 0.00337% | 91.36% and 94.20% | 98.44% and 96.45% | 93.68% and 94.54% | 89.2 | 98.6 | 93.5 | 103 | 82.3% and 103% | 
O=C1NCN(c2ccccc2)C12CCN(CCCC(c1ccc(F)cc1)c1ccc(F)cc1)CC2 [Fluspiri-lene] | 3.37% and 2.70% and 4.04% | 83.60% and 85.38% | 85.1 | 102 | 93.8 | 121.35% and 117.98% and 101.12% | 111.24% and 114.61% and 104.49% | 114.61% and 94.38% and 111.24% | 103.85% and 102.73% | 105.07% and 105.49% | 94.12% and 91.52% | 105 | 108 | 94 | 97 | 97.8% and 97.9% | 
CO[C@@H]1[C@@H](O[C@@H]2O[C@H](C)[C@@H](O[C@H]3C[C@@](C)(O)[C@@H](OC(=O)CC(C)C)[C@H](C)O3)[C@H](N(C)C)[C@H]2O)[C@@H](CC=O)C[C@@H](C)[C@@H](O)/C=C/C=C/C[C@@H](C)OC(=O)C[C@H]1OC(C)=O [Josa-mycin] | 8.09% and 10.77% |  |  | 91.6 | 100 |  |  |  |  |  |  |  |  |  | 90.4 | 91.6% and 95.3% | SARS-CoV-2 infection (%) [1]: 107.69% and 101.94%; SARS-CoV-2 infection (%) ([1]; 2.22 μM): 48.50% and 53.93%; SARS-CoV-2 infection (%) ([1]; 6.67 μM): 16.19% and 21.54%; Cell viability (%) (Vero cells; 2.22 μM): 93.52% and 91.16%; Cell viability (%) (Vero cells; 6.67 μM): 93.20% and 88.03%; viability at 0.247 µM (in vitro [2]; Cell viability (%)): 102%; viability at 20 µM (in vitro [2]; Cell viability (%)): 89.7%; viability at 2.22 µM (in vitro [2]; Cell viability (%), 2.22 μM): 96.9%; viability at 6.67 µM (in vitro [2]; Cell viability (%), 6.67 μM): 93%
CO[C@@H]1[C@@H](O[C@@H]2O[C@H](C)[C@@H](O[C@H]3C[C@@](C)(O)[C@@H](OC(=O)CC(C)C)[C@H](C)O3)[C@H](N(C)C)[C@H]2O)[C@@H](CC=O)C[C@@H](C)[C@@H](O)/C=C/C=C/C[C@@H](C)OC(=O)C[C@H]1OC(C)=O [Josamycin] |  |  |  |  |  |  |  |  |  |  |  |  |  |  |  |  | EC50 ([1]; Severe acute respiratory syndrome coronavirus 2, Vero, 24 h, read-out: SARS-CoV-2 EC50): 2400 nM; CC50 (in vitro [2]): > 20 µM; viability at 0.37 µM (in vitro [4]): 94.1%; viability at 3.33 µM (in vitro [4]): 97.2%; viability at 10 µM (in vitro [4]): 98.2%; viability at […] (in vitro [4]): 96.6% and 93.2%
CN(C)C(=O)C(CCN1CCC(O)(c2ccc(Cl)cc2)CC1)(c1ccccc1)c1ccccc1 [Lopera-mide] |  |  |  | 101 | 97.5 |  |  |  |  |  |  |  |  |  | 98.7 | 100% and 98.5% | Cell viability (%) (Vero cells; African green monkey, 20 µM): 99.64%; viability at 0.625 µM (in vitro [2]; Cell viability (%)): 115%; viability at 1.25 µM (in vitro [2]; Cell viability (%)): 121%; viability at 5 µM (in vitro [2]; Cell viability (%)): 105%; viability at 20 µM (in vitro [2]; Cell viability (%)): 98.5%
CN(C)C(=O)C(CCN1CCC(O)(c2ccc(Cl)cc2)CC1)(c1ccccc1)c1ccccc1 [Loperamide] |  |  |  |  |  |  |  |  |  |  |  |  |  |  |  |  | CC50 (in vitro [2]): > 20 µM; viability at 0.123 µM (in vitro [4]): 92.4%; viability at 0.37 µM (in vitro [4]): 91.8%; viability at 3.333 µM (in vitro [4]): 88.9%; viability at 10 µM (in vitro [4]): 68.3%
O[C@H]1[C@H]2c3cc4c(cc3CN3CCC(=C[C@@H]1O)[C@H]23)OCO4 [Lyco-rine] | 0.00337% | 88.99% and 91.05% | 83 |  |  | 7.08% and 5.06% and 8.76% | 0.34% and 0.40% and 0.24% | 0.00337% | 98.69% | 103.60% and 104.02% | 84.99% and 87.96% | 93.8 | 97.9 | 83 |  |  | 
CC[C@@]1([C@@H]2O[C@@H]([C@H]3O[C@@](O)(CO)[C@H](C)C[C@@H]3C)C[C@@H]2C)CC[C@H]([C@]2(C)CC[C@]3(C[C@H](O)[C@@H](C)[C@@H]([C@@H](C)[C@@H](OC)[C@H](C)C(=O)O)O3)O2)O1 [Monen-sin] | 0.0337% | 97.54% and 96.71% | 98.8 | 78.7 | 79.7 | 74.16% and 84.27% and 91.01% | 33.71% and 60.67% and 53.93% | 0.0742% and 0.09% and 0.07% | 106.13% and 103.45% | 110.73% and 112.93% | 95.75% and 98.96% | 103 | 113 | 100 | 82 | 79.2% and 83.3% | 
CC(C)(C)NCC(O)c1ccc(O)c(CO)c1 (stereo not shown) [Salbuta-mol] | 105.49% and 89.01% |  |  |  |  | 85.71% and 108.79% and 115.38% | 128.57% and 98.90% | 92.31% and 118.68% and 115.38% |  |  |  |  |  |  |  |  | 
O=C(CCCN1CCC2(CC1)C(=O)NCN2c1ccccc1)c1ccc(F)cc1 [Spiperone] |  |  |  |  |  |  |  |  |  |  |  |  |  |  |  |  | CC50 (in vitro [2]): > 20 µM; viability at 0.37 µM (in vitro [4]): 99.5%; viability at 3.33 µM (in vitro [4]): 79.2%; viability at 10 µM (in vitro [4]): 75.7%; viability at […] (in vitro [4]): 97% and 99.9%
CC(C)(C)c1cc(C=C(C#N)C#N)cc(C(C)(C)C)c1O [Tyrphos-tin A9] | 9.10% and 6.07% and 8.43% | 97.68% and 97.70% | 91.5 |  |  | 101.12% and 121.35% and 124.72% | 131.46% and 128.09% and 114.61% | 107.87% and 117.98% and 101.12% | 112.22% and 113.82% | 118.35% and 120.78% | 96.34% | 107 | 111 | 96.3 |  |  | 
Ac-Leu-Leu-[Nle]-aldehyde | 2.73% and 1.37% and 0.00% |  |  |  |  |  |  |  |  |  |  |  |  |  |  |  | CC50 (Vero cells): > 20 µM; Cell viability (%) (Vero cells; 0.25 μM): 91.85%; Cell viability (%) (Vero cells; 0.74 μM): 90.53%; Cell viability (%) (Vero cells; 6.67 μM): 98.46%
Aurothioglucose |  |  |  |  |  |  |  |  |  |  |  |  |  |  |  |  | CC50 (Vero cells): > 20 µM
Penitrem A | 6.40% and 7.08% and 9.44% |  |  |  |  | 91.01% and 104.49% and 97.75% | 111.24% and 101.12% and 94.38% | 117.98% and 128.09% and 111.24% |  |  |  |  |  |  |  |  | 
